Key:
Assay type in all cases: cell-based
human CCR6 [1] = target: T1, human CCR6 (Homo sapiens, UniProt P51684); test: Human CCR6-CRE reporter assay; parameters: The second construct contained the open reading frame of human CCR6 in the pUNO1 backbone; host or cells: 293FT cells; details: relative -Log IC50; 293FT cells transfected with human CCR6 and CRE-luciferase reporter; 6 μM Forskolin, 6 nM CCL20; 5 h
T1 sequence (P51684 1-374): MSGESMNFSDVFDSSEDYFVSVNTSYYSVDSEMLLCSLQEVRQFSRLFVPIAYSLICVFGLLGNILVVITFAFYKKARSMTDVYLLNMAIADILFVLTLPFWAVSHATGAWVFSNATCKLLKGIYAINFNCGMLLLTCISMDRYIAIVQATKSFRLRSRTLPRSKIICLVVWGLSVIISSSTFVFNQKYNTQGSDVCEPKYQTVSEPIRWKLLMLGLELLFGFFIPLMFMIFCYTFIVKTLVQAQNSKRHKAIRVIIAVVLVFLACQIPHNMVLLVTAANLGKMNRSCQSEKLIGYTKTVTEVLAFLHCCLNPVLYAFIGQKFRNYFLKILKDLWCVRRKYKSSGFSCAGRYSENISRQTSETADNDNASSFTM
Procedure, shortened: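 293FT cells transiently co-transfected with human CCR6 and a CRE-luc2P reporter, used 48 h later. Compounds incubated with cells in medium containing 6 μM Forskolin and 6 nM CCL20 (assay-medium levels), 0.1% DMSO final, 5 h at 37° C; luminescence read, relative −Log IC50 from four-parameter fit.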

Human CD4+ T cells = test: CD4+ T cells chemotaxis assay towards CCL20; details: 3 h; for CD4+ T-cell chemotaxis: relative -Log IC50, human CD4+ T cells stimulated with anti-CD3 and anti-CD28, migration towards 150 ng/ml CCL20; for IC50: Homo sapiens, CD4+ T cell, relative -Log IC50, human CD4+ T cells stimulated with anti-CD3 and anti-CD28, migration towards 150 ng/ml CCL20
Source text: CD4+ T Cells Chemotaxis Assay Towards CCL20
Human CD4+ T cells were isolated from buffy coats of healthy donors using a CD4+ T Cell Isolation Kit (Miltenyi Biotec130-096-533). Isolated T cells were stimulated overnight with anti-CD3 and anti-CD28 antibodies (Biolegend 300314/302934) in growth medium (RPMI1640, 10% heat-inactivated FBS, 1× pen/strep (Gibco 15140)). For the chemotaxis assay, Corning Transwell plates were used with a pore size of 5 m (Corning 3388). T cells were counted and diluted to 6*10^6 cells/ml in chemotaxis medium (RPMI1640, 1% BSA, pen/strep). Compounds were four-fold serially diluted in DMSO. Further dilutions were made in chemotaxis medium. Cells were incubated with test compounds for 30 min at 37° C. prior to initiation of the assay (3*10^6 cells/ml). Final DMSO concentration in the assay was 0.2%. Wells of the Transwell plates were filled with 200 μl chemotaxis medium containing 150 ng/ml CCL20 (R&D systems 360-MP). 50 μl of the cell/compound suspension was added to the inserts of the Transwell plates (150,000 cells/insert). The Transwell plates were placed in an incubator at 37° C., 5% CO2 for 3 h. After 3 h, the number of migrated cells was quantified using CellTiter Glo (Promega). Percentage inhibition values were calculated based on the low and high signal obtained with 0.2% DMSO in chemotaxis medium without and with CCL20, respectively. The relative −Log IC50 was determined with GraphPad Prism 9 using a four-parameter dose-response model.

human CCR6 [2] = target: T1, human CCR6; test: CHO-K1 CCR6 chemotaxis assay towards CCL20; details: relative -Log IC50; CHO-K1 cells overexpressing human CCR6; migration towards 100 ng/ml CCL20; 4 h
Procedure, shortened: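 Human CCR6-overexpressing CHO-K1 cells (2*10^6 cells/ml) were preincubated 30 min at 37 °C with compound (0.2% DMSO), then allowed to migrate 4 h through 8 µm Transwell pores toward 100 ng/ml CCL20. Migrated cells were counted by CellTiter Glo. −Log IC50 came from four-parameter fits normalised to DMSO without/with CCL20.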

## N=S(=O)(c1ccc(-c2ccnc(C(N)=O)c2)cc1)[C@H]1CC[C@H](Nc2ccc(S(F)(F)(F)(F)F)cc2)CC1 (single isomer, unassigned; (+)) [Example 130, (+)-4-(4-{[trans-4-{[4-(pentafluoro-λ^6-sulfanyl)phenyl]Amino}cyclohexyl]sulfonimidoyl}phenyl)pyridine-2-carboxamide]
Human CCR6 [1]
  IC50: 200 nM
Human CD4+ T cells
  CD4+ T-cell chemotaxis: 7.3

## CC(C)c1nnc2ccc(-c3ccc(S(=N)(=O)[C@H]4CC[C@H](Nc5ccc(S(F)(F)(F)(F)F)cc5)CC4)cc3)cn12 (single isomer, unassigned; (+)) [Example 163, (+)-{4-[3-(propan-2-yl)-[1,2,4]triazolo[4,3-a]pyridin-6-yl]phenyl}[trans-4-{[4-(pentafluoro-λ^6-sulfanyl)phenyl]amino}cyclohexyl](imino)-λ^6-sulfanone]
Human CCR6 [1]
  IC50: 79.4 nM
Human CD4+ T cells
  CD4+ T-cell chemotaxis: 7.8

## N=S(=O)(c1ccc(-c2ccnc(C(N)=O)c2)cc1)[C@H]1CC[C@H](Nc2ccc(S(F)(F)(F)(F)F)cc2)CC1 (single isomer, unassigned; (-)) [Example 131, (−)-4-(4-{[trans-4-{[4-(pentafluoro-λ^6-sulfanyl)phenyl]Amino}cyclohexyl]sulfonimidoyl}phenyl)pyridine-2-carboxamide]
Human CCR6 [1]
  IC50: 316 nM
Human CD4+ T cells
  CD4+ T-cell chemotaxis: 6.6

## CC(C)c1nnc2ccc(-c3ccc(S(=N)(=O)[C@H]4CC[C@H](Nc5ccc(S(F)(F)(F)(F)F)cc5)CC4)cc3)cn12 (single isomer, unassigned; (-)) [Example 164, (−)-{4-[3-(propan-2-yl)-[1,2,4]triazolo[4,3-a]pyridin-6-yl]phenyl}[trans-4-{[4-(pentafluoro-λ^6-sulfanyl)phenyl]amino}cyclohexyl](imino)-λ^6-sulfanone]
Human CCR6 [1]
  IC50: 126 nM
Human CD4+ T cells
  CD4+ T-cell chemotaxis: 6.7

## Cc1[nH]nc2ccc(-c3ccc(S(=O)(=O)N4CCC(Nc5ccc(S(F)(F)(F)(F)F)cc5)CC4)cc3)cc12 [Example 2, 1-[4-(3-methyl-2H-indazol-5-yl)benzenesulfonyl]-N-[4-(pentafluoro-λ^6-sulfanyl)phenyl]piperidin-4-amine]
Human CCR6 [1]
  IC50: 63.1 nM
Human CD4+ T cells
  IC50: 5.01 nM

## N#Cc1c[nH]c2ccc(-c3ccc(S(=O)(=O)N4CCC(Nc5ccc(S(F)(F)(F)(F)F)cc5)CC4)cc3)cc12 [Example 3, 5-{4-[(4-{[4-(pentafluoro-λ^6-sulfanyl)phenyl]Amino}piperidin-1-yl)sulfonyl]phenyl}-1H-indole-3-carbonitrile]
Human CCR6 [1]
  IC50: 50.1 nM
Human CD4+ T cells
  IC50: 15.8 nM

## N#Cc1n[nH]c2ccc(-c3ccc(S(=O)(=O)N4CCC(Nc5ccc(S(F)(F)(F)(F)F)cc5)CC4)cc3)cc12 [Example 4, 5-{4-[(4-{[4-(pentafluoro-λ^6-sulfanyl)phenyl]Amino}piperidin-1-yl)sulfonyl]phenyl}-1H-indazole-3-carbonitrile]
Human CCR6 [1]
  IC50: 50.1 nM
Human CD4+ T cells
  IC50: 0.794 nM

## Cc1n[nH]c2cnc(-c3ccc(S(=O)(=O)[C@H]4CC[C@H](Nc5ccc(S(F)(F)(F)(F)F)cc5)CC4)cc3)cc12 [Example 142, 4-(pentafluoro-λ^6-sulfanyl)-N-[trans-4-(4-{3-methyl-1H-pyrazolo[3,4-c]pyridin-5-yl}benzenesulfonyl)cyclohexyl]aniline]
Human CCR6 [2]
  IC50: 25.1 nM
Human CCR6 [1]
  IC50: 251 nM

## O=S(=O)(c1ccc(-c2cc3cn[nH]c3cn2)cc1)[C@H]1CC[C@H](Nc2ccc(S(F)(F)(F)(F)F)cc2)CC1 [Example 147, 4-(pentafluoro-λ^6-sulfanyl)-N-[trans-4-(4-{1H-pyrazolo[3,4-c]pyridin-5-yl}benzenesulfonyl)cyclohexyl]aniline]
Human CCR6 [2]
  IC50: 39.8 nM
Human CCR6 [1]
  IC50: 200 nM

## O=S(=O)(c1ccc(-c2cc(F)c3nccn3c2)cc1)[C@H]1CC[C@H](Nc2ccc(S(F)(F)(F)(F)F)cc2)CC1 [Example 152, 4-(pentafluoro-λ^6-sulfanyl)-N-[trans-4-(4-{8-fluoroimidazo[1,2-a]pyridin-6-yl}benzenesulfonyl)cyclohexyl]aniline]
Human CCR6 [2]
  IC50: 10 nM
Human CCR6 [1]
  IC50: 100 nM

## O=C1NCCc2sc(-c3ccc(S(=O)(=O)[C@H]4CC[C@H](Nc5ccc(S(F)(F)(F)(F)F)cc5)CC4)cc3)cc21 [Example 153, 2-(4-{[trans-4-{[4-(pentafluoro-λ^6-sulfanyl)phenyl]amino}cyclohexyl]sulfonyl}phenyl)-4H,5H,6H,7H-thieno[3,2-c]pyridin-4-one]
Human CCR6 [2]
  IC50: 15.8 nM
Human CCR6 [1]
  IC50: 158 nM

## O=C1NCCCn2cc(-c3ccc(S(=O)(=O)[C@H]4CC[C@H](Nc5ccc(S(F)(F)(F)(F)F)cc5)CC4)cc3)cc21 [Example 155, 8-(4-{[trans-4-{[4-(pentafluoro-λ^6-sulfanyl)phenyl]amino}cyclohexyl]sulfonyl}phenyl)-1H,2H,3H,4H,5H-pyrrolo[1,2-a][1,4]diazepin-1-one]
Human CCR6 [2]
  IC50: 31.6 nM
Human CCR6 [1]
  IC50: 158 nM

## O=C1NCCn2cc(-c3ccc(S(=O)(=O)[C@H]4CC[C@H](Nc5ccc(S(F)(F)(F)(F)F)cc5)CC4)cc3)cc21 [Example 156, 7-(4-{[trans-4-{[4-(pentafluoro-λ^6-sulfanyl)phenyl]amino}cyclohexyl]sulfonyl}phenyl)-1H,2H,3H,4H-pyrrolo[1,2-a]pyrazin-1-one]
Human CCR6 [2]
  IC50: 39.8 nM
Human CCR6 [1]
  IC50: 158 nM

## NC(=O)c1cc(-c2ccc(S(=O)(=O)[C@H]3CC[C@H](Nc4ccc(S(F)(F)(F)(F)F)cc4)CC3)cc2)cn2ccnc12 [Example 157, 6-(4-{[trans-4-{[4-(pentafluoro-λ^6-sulfanyl)phenyl]amino}cyclohexyl]sulfonyl}phenyl)imidazo[1,2-a]pyridine-8-carboxamide]
Human CCR6 [2]
  IC50: 2.51 nM
Human CCR6 [1]
  IC50: 79.4 nM

## NC(=O)c1cc(-c2ccc(S(=O)(=O)[C@H]3CC[C@H](Nc4ccc(S(F)(F)(F)(F)F)cc4)CC3)cc2)co1 [Example 158, 4-(4-{[trans-4-{[4-(pentafluoro-λ^6-sulfanyl)phenyl]amino}cyclohexyl]sulfonyl}phenyl)furan-2-carboxamide]
Human CCR6 [2]
  IC50: 10 nM
Human CCR6 [1]
  IC50: 100 nM

## Nc1cc(-c2ccc(S(=O)(=O)[C@H]3CC[C@H](Nc4ccc(S(F)(F)(F)(F)F)cc4)CC3)cc2)cn2ccnc12 [Example 159, 6-(4-{[trans-4-{[4-(pentafluoro-λ^6-sulfanyl)phenyl]amino}cyclohexyl]sulfonyl}phenyl)imidazo[1,2-a]pyridin-8-amine]
Human CCR6 [2]
  IC50: 12.6 nM
Human CCR6 [1]
  IC50: 63.1 nM

## O=S(=O)(c1ccc(-c2ccc3nnc(C4CNC4)n3c2)cc1)N1CCC(Nc2ccc(S(F)(F)(F)(F)F)cc2)CC1 [Example 167, 1-{4-[3-(azetidin-3-yl)-[1,2,4]triazolo[4,3-a]pyridin-6-yl]benzenesulfonyl}-N-[4-(pentafluoro-λ^6-sulfanyl)phenyl]piperidin-4-amine]
Human CCR6 [2]
  IC50: 251 nM
Human CCR6 [1]
  IC50: 251 nM

## N=S(=O)(c1ccc(-c2ccc3nnc(C(F)F)n3c2)cc1)[C@H]1CC[C@H](Nc2ccc(S(F)(F)(F)(F)F)cc2)CC1 (stereo partly drawn) [Example 169, {4-[3-(difluoromethyl)-[1,2,4]triazolo[4,3-a]pyridin-6-yl]phenyl}[trans-4-{[4-(pentafluoro-λ^6-sulfanyl)phenyl]amino}cyclohexyl](imino)-λ^6-sulfanone]
Human CCR6 [2]
  IC50: 79.4 nM
Human CCR6 [1]
  IC50: 316 nM
